Like-named read-outs stand apart in the source and are kept apart here.
Assays:
[1] = target: T1, human VR1 (Homo sapiens, UniProt Q8NER1); experiment: Human VR1 [3H] RTX binding assay; details: 3H-RTX binding; for Ki: hVR1, read-out: 3H-RTX binding assay Ki hVR1; for inhibition at 1 µM: compound at 1 μM
T1 construct: expressed in transfected cells; host or cells: HEK293
Procedure, shortened: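 Membranes from HEK293 cells transfected with human VR1, about 120 μg protein/ml, incubated with [3H] RTX in HEPES buffer pH 7.4 with 0.25 mg/mL fatty acid-free BSA for 60 min at 37° C. Bound radioactivity measured by scintillation counting. Non-specific binding defined with 200 nM unlabeled RTX.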

[2] = target: T1, human VR1; experiment: Human VR1 functional assay (intracellular Ca++, FLIPR, capsaicin challenge); assay type: cell-based
Protocol: The functional activity of the test compounds was determined by measuring changes in intracellular calcium concentration using a Ca^++-sensitive fluorescent dye and FLIPR™ technology.
EC50 or IC50 values were determined from dose-response studies.

[3] = tested on: carrageenan paw-induced thermal hyperalgesia; experiment: Carrageenan Paw-induced Thermal Hyperalgesia; assay type: in vivo, mice or rats; details: read-out: % Recovery; for inhibition in vivo at 30 mg/kg: 30 mg/kg po
[4] = tested on: Dextran Sulfate Sodium Induced Colitis; experiment: Mouse Colitis Model (Dextran Sulfate Sodium Induced Colitis); assay type: in vivo, mice; details: 5% DSS in drinking water, twice daily, orally, 0.05-30 mg/kg
Excerpt: These are similar to what occurs in human colitis.
Balb/c female mice are provided with a solution of tap water containing 5% DSS (ICN chemicals) ad libitum over a 7-day period. […] This material may be administered orally or intraperitoneally, once or twice daily. At the end of this period, the animals are euthanized and their colons are collected for further analysis. Among the parameters analyzed are the length of the colon starting from 1 cm above the anus to the top of the cecum, the weight of the colon, the consistency of any stools found within the colon, and the gross macroscopic appearance of the colon. The distal colon between the 1st and the 4th centimeter are dissected into two halves. One half is placed in 10% neutral buffered formalin for later histological analysis if desired. The other half is cleaned in a bath of physiological buffer, patted dry, weighed and then placed in a solution of 0.5% hexadecyltrimethylammonium bromide (HTAB; Sigma) dissolved in 50 mM phosphate buffer, adjusted to pH 5.4. The tissue sample thus treated is then frozen at −80° C.
For the following parameters, colon length, colon weight, stool consistency and appearance and macroscopic damage a scoring system is used to describe the changes. The 4 scores for each animal are added to provide a Total Score. Thus,
Stool Score: • 0=normal (well-formed fecal pellets); • 1=loosely-shaped moist pellets; • 2=amorphous, moist, sticky pellets; • 3=bloody diarrhea. Presence of blood in stool: add 1 to scores <3
Colon Damage Score: • 0=no inflammation • 1=reddening mild inflammation; • 2=moderate inflammation or more widely distributed; • 3=severe inflammation and/or extensively distributed
Colon Weight Score: • 0=<5% weight loss; • 1=5-14% weight loss; • 2=15-24% weight loss; • 3=25-35% weight loss; 4=>35% weight loss.
Colon Length Score: • 0=<5% shortening; • 1=5-14% shortening; • 2=15-24% shortening; • 3=25-35% shortening; • 4=>35% shortening.
Colon weight changes and colon length changes are also directly measured and the net changes compared to DSS and untreated controls are used to calculate a % inhibition of colon weight loss or colon shrinkage induced by DSS treatment.
The tissue sample previously frozen at −80° C. in 0.5% solution of HTAB is thawed, homogenized twice for 15 seconds using a Brinkman Polytron homogenizer fitted with a TS10 generator. The crude homogenate is next sonicated at 60 watts for two 5-second bursts and then centrifuged for 20 minutes at 15000×g. The supernatant of this homogenate is collected, aliquoted and frozen at −70° C. for future analysis for myeloperoxidase analysis (MPO). MPO is an intracellular enzyme found in neutrophils and can be considered a surrogate marker for neutrophil infiltration into tissues, including those afflicted with colitis (Diaz-Granados, et al., 2000).
Statistical analyses were performed by ANOVA using Multiple Comparisons Test and Tukey's test.

[5] = tested on: rings of bronchial tissue obtained from male guinea pigs; experiment: Guinea Pig Bronchial Ring Constriction; details: tissues exposed to compound for 30 min; capsaicin 10 nM-10 μM; FIG. 7
Protocol: Two mm rings of bronchial tissue obtained from male guinea pigs were suspended in normal Krebs solution between two wire hooks under an initial loading tension of 1 gram. The saline was maintained in a 5% CO2 and 95% O2 atmosphere at 37° C. in the presence of indomethacin (5 μM). A sub-maximal dose of 5-methylfurmethide (5 Mef, 1 μM) was added to each tissue to determine responsiveness using an isometric force transducer. After washout, tissues were exposed to compounds or vehicle for 30 min and treated with thiorphan (10 μM, 5% Na2CO3). A concentration-response curve was then constructed using capsaicin (10 nM-10 μM) increasing in 0.5 log unit increments. The dose response curve was calculated as % max of the 5-Mef response and estimated pA2 were determined.

[6] = tested on: mice; experiment: Hot-plate test, reference compounds; assay type: in vivo; details: i.p., pre-treat time 30 min
Excerpt: The hot-plate test originally described by Eddy and Leimbach (J. Pharmacol. Exp. Ther. 107:385-393, 1953) with minor modifications (e.g., O'Callaghan and Holtzman, J. Pharmacol. Exp. Ther. 192: 497-505, 1975) is used to ascertain the analgesic potential of compounds.
Generally, male, Swiss-derived albino mice (CRS-CD1®; Charles River Laboratories), weighing 18-24 g at the time of testing or male Sprague Dawley rats (CD1, Charles River Laboratories) 100-300 g are used. The animals are weighed, placed in a plastic box with wood chips (typically 10 mice or 4-6 rats per box) and allowed to acclimate before testing. […]
An animal is placed on the heated surface and the time interval between placement and a shaking, licking or tucking of the hindpaw is recorded as the control reaction time (RTC). […] A percent maximum possible effect (% MPE) can also be calculated from the following formula: % MPE=100×(RTdc−RTc)/(CO−RTc), where RTdc and RTc are drug-treated and control reaction times, respectively, and CO is cut-off time.
As a screen, the largest possible nontoxic dose of test drug is administered. If activity is detected, and if appropriate, generally 3-5 doses (usually 10 mice or 6-8 rats per dose) are used to construct a dose response curve or time course. […] The ED50 value is determined at the time of peak effect.

[7] = FLIPR functional assay IC50 hVR1 60 min, 60 min
[8] = hVR1, capsaicin challenge, read-out: FLIPR functional assay IC50 hVR1

T1 sequence (Q8NER1 whole entry): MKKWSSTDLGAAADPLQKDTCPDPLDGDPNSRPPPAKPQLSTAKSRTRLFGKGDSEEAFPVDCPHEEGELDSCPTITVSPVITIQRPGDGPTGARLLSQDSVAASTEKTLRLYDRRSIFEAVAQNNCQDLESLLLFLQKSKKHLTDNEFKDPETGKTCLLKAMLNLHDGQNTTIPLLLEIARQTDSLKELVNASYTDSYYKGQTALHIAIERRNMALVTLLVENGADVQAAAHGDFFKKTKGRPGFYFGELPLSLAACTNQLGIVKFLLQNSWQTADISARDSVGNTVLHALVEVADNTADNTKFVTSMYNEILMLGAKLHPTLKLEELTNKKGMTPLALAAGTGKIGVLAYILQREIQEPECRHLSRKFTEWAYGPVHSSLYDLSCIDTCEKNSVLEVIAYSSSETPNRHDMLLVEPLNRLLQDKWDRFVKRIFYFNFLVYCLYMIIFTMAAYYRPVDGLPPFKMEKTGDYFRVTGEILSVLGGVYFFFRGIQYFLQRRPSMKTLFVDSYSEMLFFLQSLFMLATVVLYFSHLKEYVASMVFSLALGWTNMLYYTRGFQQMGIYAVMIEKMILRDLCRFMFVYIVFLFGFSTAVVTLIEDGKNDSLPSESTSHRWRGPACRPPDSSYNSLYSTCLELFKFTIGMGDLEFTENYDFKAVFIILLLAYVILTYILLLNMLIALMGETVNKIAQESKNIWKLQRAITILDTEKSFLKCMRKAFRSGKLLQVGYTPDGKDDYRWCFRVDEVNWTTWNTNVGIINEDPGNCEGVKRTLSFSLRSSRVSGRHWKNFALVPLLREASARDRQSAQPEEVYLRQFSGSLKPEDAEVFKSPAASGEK

SMILES	Ki [1] [nM]	IC50 [2, 7] [nM]	IC50 [2, 8] [nM]	inhibition in vivo at 10 mg/kg ([3]; 10 mg/kg po) [%]	other results
O=C(C=Cc1ccc(Cl)c(C(F)(F)F)c1)Nc1cnc2ccccc2c1 [Example 56, 3-(4-Chloro-3-trifluoromethyl-phenyl)-N-quinolin-3-yl-acrylamide]	–	–	–	58	–
CC(C)(C)c1ccc(C=CC(=O)Nc2cnc3ccccc3c2Cl)cc1 [Example 82, 3-(4-tert-Butyl-phenyl)-N-(4-chloro-quinolin-3-yl)-acrylamide]	–	–	–	70	–
CN(c1ccc(C(=O)Nc2cnc3ccccc3c2)cc1)C1CCCCC1 [Example 102, 4-(Cyclohexyl-methyl-amino)-N-quinolin-3-yl-benzamide]	–	–	–	–	inhibition in vivo at 30 mg/kg [3]: 55%; inhibition of colon weight loss ([4]; FIG. 1): significant (p<0.05) inhibition; inhibition of colon shrinkage ([4]; FIG. 2): significant (p<0.05) inhibition; Colon Damage Score ([4]; FIG. 3): diminished (p>0.05), but not statistically significantly; Stool Score ([4]; FIG. 4): decreased (p>0.05), but not statistically significantly; inhibition of Total Score ([4]; FIG. 5): significant (p<0.05) inhibition; Myleoperoxidase (MPO) inhibition ([4]; colon tissue, FIG. 6): inhibition (p>0.05)
CCCCCN(C)c1ccc(C(=O)Nc2cnc3ccccc3c2)cc1 [Example 154, 4-(Methyl-pentyl-amino)-N-quinolin-3-yl-benzamide]	–	–	–	–	inhibition in vivo at 10 mg/kg ([3]; 10 mg/kg sc): 83%
O=C(Nc1cnc2ccccc2c1)c1ccc(N2CC3CCCC(C3)C2)cc1 [Example 178, 4-(3-Aza-bicyclo[3.3.1]non-3-yl)-N-quinolin-3-yl-benzamide]	–	–	–	–	shift of the capsaicin dose-response curve [5]: shifted the capsaicin dose-response curve to the right
Cc1cc(CC(=O)O)n(C)c1C(=O)c1ccc(Cl)cc1 [Zomepirac]	–	–	–	–	ED50 (95% C.I.) [6]: inactive

More lines, main results first:

Ki [1] [nM]	IC50 [2, 7] [nM]	IC50 [2, 8] [nM]	SMILES	inhibition in vivo at 10 mg/kg ([3]; 10 mg/kg po) [%]	other results
5.24	30	36.7	CCC(C)(C)c1ccc(CCC(=O)Nc2cnc3ccccc3c2)cc1 [Example 14, 3-[4-(1,1-Dimethyl-propyl)-phenyl]-N-quinolin-3-yl-propionamide]	–	inhibition in vivo at 30 mg/kg [3]: 47%
81.5	390	260	CN(CC1CCCCC1)c1ccc(CCC(=O)Nc2cnc3ccccc3c2)cc1 [Example 35, 3-[4-(Cyclohexylmethyl-methyl-amino)-phenyl]-N-quinolin-3-yl-propionamide]	–	inhibition in vivo at 20 mg/kg ([3]; 20 mg/kg po): 87%
178	190	1100	CCCCCN(C)c1ccc(CCC(=O)Nc2cnc3ccccc3c2)cc1 [Example 37, 3-[4-(Methyl-pentyl-amino)-phenyl]-N-quinolin-3-yl-propionamide]	–	inhibition in vivo at 30 mg/kg [3]: 58%
27.3	72	1900	CN(CCc1ccccc1)c1ccc(C(=O)Nc2cnc3ccccc3c2)cc1 [Example 89, 4-(Methyl-phenethyl-amino)-N-quinolin-3-yl-benzamide]	42	inhibition at 1 µM [1]: 102%
17.6	357	–	O=C(Nc1cnc2ccccc2c1)c1ccc(N2CCC(Cc3ccccc3)CC2)cc1 [Example 180, 4-(4-Benzyl-piperidin-1-yl)-N-quinolin-3-yl-benzamide]	64	inhibition at 1 µM [1]: 99%
24.1	106	84	CCCCCN1CCc2cc(C(=O)Nc3cnc4ccccc4c3)ccc21 [Example 227, 1-Pentyl-2,3-dihydro-1H-indole-5-carboxylic acid quinolin-3-ylamide]	52	inhibition at 1 µM [1]: 98%
200	–	10000	O=C(CCc1ccc2c(c1)CCCC2)Nc1cnc2ccccc2c1 [N-Quinolin-3-yl-3-(5,6,7,8-tetrahydro-naphthalen-2-yl)-propionamide]	–	–

Source: patent publication US8394828B2 (Janssen Pharmaceutica, NV, priority 2003, dated 2013)
